# Assay results reported in article PMC7471840, “Autoantigens PLA2R and THSD7A in membranous nephropathy share a common epitope motif in the N-terminal domain” (Journal of Autoimmunity, 2020).
# pKd: −log10 of the molar value.
# Tests used:
# Moab 20-2-6 [1] = test: Slot blotting of peptides with Moab 20-2-6; assay type: binding, mouse; settings: non-reducing, 1 μg peptide, antibody 1:5000
# Description: (§1) PLA2R, CysR domain, THSD7A (R&D Systems) and TSR1 protein samples (1 μg per lane) were resolved using 4–12% BisTris gradient gels with the MES buffer system, transferred to nitrocellulose membranes and blotted using patient sera (1:100 dilution) followed by incubation with Alexa Fluor® 680-AffiniPure Goat Anti-Human IgG, Fcγ Fragment Specific (min X Bov,Hrs,Ms Sr Prot) (1:10,000 dilution; Jackson Labs). Proteins were also analyzed using Moab 20-2-6, a monoclonal anti-PLA2R mouse antibody raised against a PLA2R fragment (see 2.4.1 for further details) at dilution 1:5000. Protein bands were visualized using an Odyssey Imaging System (LI-COR) at 700 nm and the intensity settings were kept constant for all blots allowing comparison. For slot blotting, 1 μg of proteins or peptides (P28mer aa38–65 and T28mer aa75-102 synthesized by ProImmune Ltd, Oxford, UK) were blotted directly onto nitrocellulose membrane and vacuum applied. For the reducing condition, samples were diluted in 10 mM Tris pH 8 then reduced and alkylated by sequential incubation with 50 mM DTT for 1 h at 37 °C and then with 125 mM iodoacetamide for 20 min in the dark. The reduced samples along with unreduced were blotted as described above.
# (§2) Fig.10 – Specificity of Moab 20-2-6 to P28mer and T28mer.
# (§3) Slot blot analysis of unrelated mouse monoclonal
# (§4) Moab anti-Transferrin secondary only control […]
# [2] = system: sera from IgA Nephropathy (IgAN) patients; test: Slot blotting with IgA Nephropathy sera; assay type: binding, human; settings: slot blot, non-reducing; 1 μg peptide; pool of 5 sera, 1:100
# Description: as §1
# (§5) Fig.6 - Slot blot analysis of sera from IgAN and
# (§6) Hu anti-IgAN Hu anti-ANCA Ponceau
# (§7) CysR P28sc CysR P28sc CysR P28sc […]
# [3] = system: THSD7A autoantibodies in anti-THSD7A positive MN patient sera; test: BLI off-rate of MN patient sera, anti-THSD7A positive sera on immobilized peptides; assay type: binding, human; settings: for Koff (dissociation rate): BLI, Octet Red, peptide immobilized on AR2G sensor, sera 1:100 in HEPES-T sera (10 mM HEPES, 150 mM NaCl, 0.05% Tween-20, 0.5% control sera), association 450s, dissociation 1200s, Hill fit, ten anti-THSD7A positive sera
# Description: (§8) BLI experiments were conducted using an Octet Red (ForteBio, Nottingham, UK). P28mer and T28mer were diluted to 200 μg/ml in 10 mM sodium acetate, pH 4.5, and immobilized on an Octet AR2G sensor (ligand densities of 1.2 nm and 1.4 nm respectively). Patient sera were diluted 1:100 in HEPES-T sera (10 mM HEPES, 150 mM NaCl, 0.05% Tween-20 and 0.5% of a pool of human control sera). Three control normal sera were incorporated in the running buffer in order to provide the baseline binding (i.e. normalize the binding due to any spurious interaction) and allowing quantification of binding above this background. […] Sensors were incubated in MN sera for 450s (association phase) followed by HEPES-T sera for 1200s (dissociation phase). Regeneration was performed in 10 mM NaOH with three successive incubations. The peptide immobilized sensors responses to MN patient sera were calibrated against non-specific binding of each sensor to the HEPES-T sera buffer. The data were fitted to a Hill-1 plot with the inverse k value equivalent to the off rates (koff). Statistical analysis was performed using two way ANOVA multiple comparison or paired t-test as stated in the figure legends. p values of <0.05 were considered significant.
# Moab 20-2-6 [4] = test: SPR kinetics of Moab 20-2-6 on immobilized peptides; assay type: binding, mouse; settings: ProteOn XPR36, peptide immobilized on GLC chip, Moab 20-2-6 at 25-5 nM, Langmuir 1:1 with mass transfer, printed in Fig. 4B
# Source text: Hybridoma production was undertaken by Proteogenix SAS (Schiltigheim, France). Mice were immunized with a fragment of human PLA2R protein (namely NC3, comprising the first five extracellular domains, CysR-FnII-CTLD1-CTLD2-CTLD3). Following fusion of spleen cells, 34 positive supernatants were found when screened by ELISA on the NC3 protein. Ten of the original 34 positive supernatants were taken forward for cloning. Following subcloning, 5 of 10 clones were selected for purification of monoclonal antibody which included antibody 20-2-6.
# Kinetics were determined using a ProteOn XPR36 (Bio-Rad, Watford, UK). The P28mer and T28mer peptides were diluted to 200 μg/ml in 10 mM sodium acetate, pH 4.5, and immobilized on a ProteOn GLC sensor chip using standard amine coupling chemistry. […] Moab 20-2-6 was diluted to 25, 20, 15, 10, 5 nM in HEPES-T and injected for 120 s at 70 μl/min. The injection was stopped and dissociation phase measured for 800s. Buffer only and a blank immobilized lanes were used as controls and subtracted. The GLC sensor was regenerated in 10 mM NaOH with two successive injections. Kinetics were determined by fitting to a Langmuir 1:1 interaction model.
# [5] = system: affinity purified anti-T28mer (THSD7A autoantibodies); test: BLI of affinity purified anti-T28mer; assay type: binding, human; settings: immobilized peptide, antibodies from anti-THSD7A sera eluted from T28mer beads, normalized to blank beads
# Description: (§9) 2 mg of MyOne™ carboxylic acid dynabeads per condition (Invitrogen, UK) were activated using 18.75 mg/ml EDC (N-3-dimethylaminopropyl- N′-ethylcarbodiimide hydrochloride, Sigma-Aldrich). 800 μg/ml of recombinant PLA2R fragment (NC3) and peptides (P28mer, T28mer or T28mer scrambled peptide) diluted in 15 mM MES buffer pH 6 were covalently immobilized overnight at 4 °C. The conditioned beads were then deactivated using 1 M ethanolamine (Bio-Rad) for 1 h. Pooled anti-THSD7A positive MN patient sera were diluted 1:50 in PBS-T and incubated (overnight at 4 °C with agitation) with 1 mg of either blank immobilized, T28mer immobilized or T28mer scrambled peptide immobilized magnetic beads. Pooled anti-PLA2R positive MN patient sera were similarly diluted and incubated with blank immobilized, PLA2R antigen immobilized or P28mer immobilized magnetic beads. Magnetic beads from all conditions were then precipitated, the supernatants removed, and washed three times in PBS-T. Bound antibodies were eluted with 0.1 M glycine pH 2.2 and the eluates from each condition were neutralized using 1 M TrisHCl pH 8. The affinity-purified eluate from each condition was then evaluated for binding to the P28mer and T28mer by BLI. The BLI analysis was executed as stated in section 2.9.1.1. with modification of the running buffer. […]
# [6] = system: sera from ANCA vasculitis patients; test: Slot blotting with ANCA vasculitis sera; assay type: binding, human; settings: slot blot, non-reducing; 1 μg peptide; pool of 5 sera, 1:100
# Description: as §1, §5, §6, §7
# [7] = system: anti-THSD7A positive sera; test: Slot blotting with anti-THSD7A positive sera; assay type: binding, human; settings: for binding of anti-THSD7A positive sera (slot blot): non-denaturing, 1 μg protein/peptide, sera 1:100, Fig. 2D
# Description: as §1
# [8] = system: affinity purified anti-P28mer (PLA2R autoantibodies); test: BLI of affinity purified anti-P28mer; assay type: binding, human; settings: immobilized peptide, antibodies eluted from P28mer beads, normalized to blank beads
# Description: as §9
# [9] = system: PLA2R autoantibodies in anti-PLA2R positive MN patient sera; test: BLI off-rate of MN patient sera, anti-PLA2R positive sera on immobilized peptides; assay type: binding, human; settings: Octet Red, peptide immobilized on AR2G sensor, sera 1:100 in HEPES-T sera (10 mM HEPES, 150 mM NaCl, 0.05% Tween-20, 0.5% control sera), association 450s, dissociation 1200s, Hill fit, ten anti-PLA2R positive sera
# Description: as §8
# [10] = system: unrelated mouse monoclonal raised against transferrin receptor; test: Slot blotting of peptides with unrelated mouse monoclonal; assay type: binding; settings: slot blot, non-reducing; 1 μg peptide; antibody 1:5000
# Description: as §1, §2, §3, §4
# [11] = system: affinity purified antibodies from PLA2R positive sera against PLA2R antigen; test: BLI of affinity purified anti-PLA2R (against PLA2R antigen); assay type: binding, human; settings: immobilized peptide, antibodies eluted from PLA2R antigen beads (positive control)
# Description: as §9
# anti-PLA2R positive sera = test: Slot blotting with anti-PLA2R positive sera; assay type: binding, human; settings: non-denaturing; 1 μg protein/peptide; sera 1:100; Fig. 2D
# Description: as §1
# [12] = Circular dichroism of the epitope peptides; assay type: physicochemical; settings: 0.5 mg/ml; for turn content / unordered content / α-helix content / β-sheet content: CD far-UV 190–260 nm, milliQ water, 0.05-cm path, average of 10 accumulations, BeStSel
# Description: Lyophilized peptides were reconstituted in milliQ water to a concentration of 2.5 mg/ml and diluted to 0.5 mg/ml. CD Far-UV (190–260 nm) spectra were recorded using a Jasco-810 spectropolarimeter. Measurements were taken every 0.2 nm in a 0.05-cm path length cell. Spectra were corrected for buffer absorbance and represent an average of 10 accumulations. Spectra were recorded in millidegrees and converted to mean residue ellipticities using the following equation deltaE = mdeg x (0.1 x mrw)/path x conc_mg/ml x 3298 (where P28mer mrw = 109.5, T28mer mrw = 107.9). Estimation of secondary structure content was then performed using BeStSel software program.
pKd (Moab 20-2-6 [4]),binding of affinity purified anti-T28mer [5],binding of affinity purified anti-P28mer [8],reactivity of unrelated mouse monoclonal to peptide [10],Substance,reactivity of Moab 20-2-6 to peptide (slot blot) (Moab 20-2-6 [1]),binding of IgA Nephropathy sera [2],Koff (dissociation rate) [3] [s⁻¹],binding of ANCA vasculitis sera [6],binding of anti-THSD7A positive sera (slot blot) [7],Koff (dissociation rate) [9] [s⁻¹],binding of affinity purified PLA2R autoantibodies [11],binding of anti-PLA2R positive sera (slot blot) (anti-PLA2R positive sera),turn content [12] [%],unordered content [12] [%],α-helix content [12] [%],β-sheet content [12] [%],"preference of sera THSD7A autoantibodies between peptides (by dissociation rates) ([3]; T28mer vs P28mer, Fig. 3B **** p value < 0.001 (two-way ANOVA))","number of anti-THSD7A sera recognizing the peptide ([7]; native blotting, ten anti-THSD7A sera tested)",negative peak in CD spectrum ([12]; CD far-UV)
10.05,bind to both epitope peptides,bind to both epitope peptides,no reactivity,"P28mer: known major PLA2R CysR epitope peptide, aa38-65, synthesized by ProImmune",reactivity,no binding,0.0068,no binding,reacted with both P28mer and T28mer,0.0028,bind to both epitope peptides,reacted with both P28mer and T28mer,21.3,45.2,12.1,21.3,,,
10.00,bind to both epitope peptides,bind to both epitope peptides,no reactivity,"T28mer: THSD7A epitope peptide, aa75-102, located in the TSR1 domain, synthesized by ProImmune (GPGGIQTRAVWCAHVEGWTTLHTNCKQA; UniProt Q9UPZ6 75-102, looked up, fragment)",reactivity,no binding,0.0013,no binding,reacted with both P28mer and T28mer,0.0009,bind to both epitope peptides,reacted with both P28mer and T28mer,15,46.7,6.5,31.8,preferentially bind to the T28mer over P28mer,All ten anti-THSD7A sera tested recognized the T28mer peptide,around 205 nm
